From PubChem BioAssay (NCI)
Several values for one entry are separate records, joined by “and”; a condition that tells them apart may be missing. Identical values can stand only once.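 A five-concentration, 48-hour dose response in 96-well plates underlies each endpoint, interpolated linearly between surrounding concentrations. GI50: concentration for 50% inhibition of growth. TGI is the concentration that stops growth completely.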

Tests used:
Assay in all cases: DTP human tumour cell line panel, 48 h
COLO 205 colon = tested on: COLO 205 colon
SN12C renal = tested on: SN12C renal
OVCAR-3 ovarian = tested on: OVCAR-3 ovarian
SNB-19 CNS = tested on: SNB-19 CNS
A498 renal = tested on: A498 renal
HCT-15 colon = tested on: HCT-15 colon
NCI-H23 lung = tested on: NCI-H23 lung
LOX IMVI melanoma = tested on: LOX IMVI melanoma
IGROV1 ovarian = tested on: IGROV1 ovarian

Row | SMILES | GI50 (COLO 205 colon) [µM] | TGI (COLO 205 colon) [µM] | GI50 (SN12C renal) [µM] | TGI (SN12C renal) [µM] | GI50 (OVCAR-3 ovarian) [µM] | TGI (OVCAR-3 ovarian) [µM] | GI50 (SNB-19 CNS) [µM] | TGI (SNB-19 CNS) [µM] | GI50 (A498 renal) [µM] | TGI (A498 renal) [µM] | GI50 (HCT-15 colon) [µM] | TGI (HCT-15 colon) [µM] | GI50 (NCI-H23 lung) [µM] | TGI (NCI-H23 lung) [µM] | TGI (LOX IMVI melanoma) [µM] | TGI (IGROV1 ovarian) [µM] | GI50 (IGROV1 ovarian)
1 | Nc1nc(N)c2cc(NCc3ccc(Cl)c(Cl)c3)ccc2n1 | 1.32 | 2.6 | 1.5 | 2.89 | 1.03 | 2.24 | 1.46 | 2.78 | 1.16 | 2.41 | 0.765 | 2.02 | 1.19 | 2.61 | – | – | –
2 | N#Cc1c(-c2ccccc2)c(N=Nc2ccc(Cl)cc2)c(=O)n2c1[nH]c1ccccc12 | – | > 100 | – | > 100 | – | > 100 | – | > 100 | – | > 100 | – | > 100 | – | > 100 | > 100 | > 100 | –
3 | CN(C)C(=O)OC(Cn1cncn1)(Cn1cncn1)c1ccc(Cl)cc1Cl | – | > 100 | – | – | – | > 100 | – | > 100 | – | > 100 | – | > 100 | – | – | > 100 | > 100 | –
4 | C/C=C/C1OC(O)(C(C)C(O)[C@H](C)C2OC(=O)/C(OC)=C/C(C)=C/[C@@H](C)[C@@H](O)[C@@H](C)C(O)C(C)C/C(C)=C/C=C/C2OC)C[C@@H](OC2CC(O)C(OC(N)=O)C(C)O2)C1C (some centres not stated) | – | 1.27 | – | 15 | – | 3.24 | – | 10.5 | – | 3.68 | – | 13.3 | – | 15.3 | < 0.01 | 12.9 | –
5 | Oc1ccc(Cl)cc1CN1CCN(Cc2cc(Cl)ccc2O)C1 | – | 5.15 | – | 5.19 | – | 11.8 | – | 12.2 | – | 29.4 | – | – | – | 5.53 | 4.07 | 6.47 | –
6 | CC(=O)OCC1OC(Oc2cc(C)c(O)cc2C/C=C(\C)CC/C=C(\C)CC(=O)CC(C)C)C(O)C(OC(C)=O)C1OC(C)=O (configuration not stated) | – | 17.3 | – | 40.3 | – | 30 | – | > 50 | – | 27.6 | – | > 50 | – | 18.8 | 32.7 | > 50 | –
7 | O=C(N/N=C(/COc1ccc([N+](=O)[O-])cc1)N=Cc1ccncc1)c1ccncc1 | – | > 100 | – | > 100 | – | > 100 | – | > 100 | – | > 100 | – | > 100 | – | > 100 | > 100 | > 100 | –
8 | CCOC(=O)CNc1nc(=O)c2c(=O)oc(Cl)cc2o1 | – | > 100 | – | 53.1 | – | 25.5 | – | > 100 | – | 38 | – | 23.7 | – | 38.5 | 22.3 | 21.7 | –
9 | CCOC(=O)CC1(c2cccc3ccccc23)OC(=O)c2ccccc21 (configuration not stated) | – | 98.5 | – | > 100 | – | > 100 | – | > 100 | – | > 100 | – | > 100 | – | 69.2 | > 100 | > 100 | –
10 | Cc1cn([C@@H]2O[C@H](CO[Si](C)(C)C(C)(C)C)[C@]3(O[C@H]3C(=O)NN)[C@H]2O[Si](C)(C)C(C)(C)C)c(=O)[nH]c1=O | – | 6.74 | – | 13.9 | – | 15.9 | – | 21.7 | – | 30.5 | – | 14.8 | – | 30 | 10.7 | 18.6 | –
11 | O=c1[nH]nc(Cc2ccccc2)n1CCO | – | > 100 | – | > 100 | – | > 100 | – | > 100 | – | > 100 | – | > 100 | – | > 100 | > 100 | > 100 | –
12 | C[N+]1(CCCl)CC[N+](C)(CCCl)CC1 (configuration not stated) | – | > 100 | – | > 100 | – | > 100 | – | > 100 | – | > 100 | – | > 100 | – | > 100 | > 100 | > 100 | –
13 | O=C1OC(=O)c2cc(S(=O)(=O)c3ccc4c(c3)C(=O)OC4=O)ccc21 | – | > 100 | – | > 100 | – | > 100 | – | > 100 | – | – | – | > 100 | – | > 100 | > 100 | > 100 | –
14 | CCOP(=O)(OCC)C(N)c1ccc(Cl)cc1 (configuration not stated) | – | > 100 | – | > 100 | – | – | – | > 100 | – | > 100 | – | > 100 | – | > 100 | > 100 | > 100 | –
15 | Cc1csc(/N=C\c2c(O)c3ccccc3oc2=O)n1 | – | > 100 | – | – | – | > 100 | – | > 100 | – | – | – | > 100 | – | 33 | > 100 | > 100 | –
16 | O=S(=O)(/N=C(\NO)Nc1ccc(Cl)cc1)c1cccc2nsnc12 | – | > 100 | – | 63.1 | – | 70 | – | > 100 | – | – | – | > 100 | – | > 100 | 61.4 | > 100 | –
17 | N#Cc1c(-c2ccccc2)[nH]c(=O)n(C2OC(CO)C(O)C(O)C2O)c1=O (configuration not stated) | – | > 100 | – | > 100 | – | > 100 | – | > 100 | – | > 100 | – | > 100 | – | > 100 | – | > 100 | > 100 µM and 21.3 µM
18 | CC1C2(C)OC(=N)C(C#N)(C(c3cccc([N+](=O)[O-])c3)O2)C1(C#N)C#N (configuration not stated) | – | 27.5 | – | 28.1 | – | – | – | > 100 | – | > 100 | – | – | – | > 100 | 36 | > 100 | –
